Columns and labels:
M. quadriceps femoris = assay: isometric force measurement of live, anesthetized rat M. quadriceps femoris due to electrical stimulation; assay type: in vivo
Procedure: The maximum isometric force induced by the stimulation was determined after intraperitoneal injection of some of the compounds of the invention. During the measurement, the following parameters of live anesthetized rats were continuously monitored: • a) heart rate • b) blood flow in the neck arteries • c) respiratory frequency • d) blood oxygen saturation ratio Results from live anesthetized rats are summarized in the table below.

[1] = target: recombinant human non-muscle myosin 2 NM2C (Homo sapiens, UniProt Q7Z406); assay: actomyosin steady state ATPase measurement, NM2C; assay type: biochemical
Text: […]; (ii) the concentration required for semi-maximal inhibition.

Sequence of recombinant human non-muscle myosin 2 NM2C (Q7Z406 whole entry): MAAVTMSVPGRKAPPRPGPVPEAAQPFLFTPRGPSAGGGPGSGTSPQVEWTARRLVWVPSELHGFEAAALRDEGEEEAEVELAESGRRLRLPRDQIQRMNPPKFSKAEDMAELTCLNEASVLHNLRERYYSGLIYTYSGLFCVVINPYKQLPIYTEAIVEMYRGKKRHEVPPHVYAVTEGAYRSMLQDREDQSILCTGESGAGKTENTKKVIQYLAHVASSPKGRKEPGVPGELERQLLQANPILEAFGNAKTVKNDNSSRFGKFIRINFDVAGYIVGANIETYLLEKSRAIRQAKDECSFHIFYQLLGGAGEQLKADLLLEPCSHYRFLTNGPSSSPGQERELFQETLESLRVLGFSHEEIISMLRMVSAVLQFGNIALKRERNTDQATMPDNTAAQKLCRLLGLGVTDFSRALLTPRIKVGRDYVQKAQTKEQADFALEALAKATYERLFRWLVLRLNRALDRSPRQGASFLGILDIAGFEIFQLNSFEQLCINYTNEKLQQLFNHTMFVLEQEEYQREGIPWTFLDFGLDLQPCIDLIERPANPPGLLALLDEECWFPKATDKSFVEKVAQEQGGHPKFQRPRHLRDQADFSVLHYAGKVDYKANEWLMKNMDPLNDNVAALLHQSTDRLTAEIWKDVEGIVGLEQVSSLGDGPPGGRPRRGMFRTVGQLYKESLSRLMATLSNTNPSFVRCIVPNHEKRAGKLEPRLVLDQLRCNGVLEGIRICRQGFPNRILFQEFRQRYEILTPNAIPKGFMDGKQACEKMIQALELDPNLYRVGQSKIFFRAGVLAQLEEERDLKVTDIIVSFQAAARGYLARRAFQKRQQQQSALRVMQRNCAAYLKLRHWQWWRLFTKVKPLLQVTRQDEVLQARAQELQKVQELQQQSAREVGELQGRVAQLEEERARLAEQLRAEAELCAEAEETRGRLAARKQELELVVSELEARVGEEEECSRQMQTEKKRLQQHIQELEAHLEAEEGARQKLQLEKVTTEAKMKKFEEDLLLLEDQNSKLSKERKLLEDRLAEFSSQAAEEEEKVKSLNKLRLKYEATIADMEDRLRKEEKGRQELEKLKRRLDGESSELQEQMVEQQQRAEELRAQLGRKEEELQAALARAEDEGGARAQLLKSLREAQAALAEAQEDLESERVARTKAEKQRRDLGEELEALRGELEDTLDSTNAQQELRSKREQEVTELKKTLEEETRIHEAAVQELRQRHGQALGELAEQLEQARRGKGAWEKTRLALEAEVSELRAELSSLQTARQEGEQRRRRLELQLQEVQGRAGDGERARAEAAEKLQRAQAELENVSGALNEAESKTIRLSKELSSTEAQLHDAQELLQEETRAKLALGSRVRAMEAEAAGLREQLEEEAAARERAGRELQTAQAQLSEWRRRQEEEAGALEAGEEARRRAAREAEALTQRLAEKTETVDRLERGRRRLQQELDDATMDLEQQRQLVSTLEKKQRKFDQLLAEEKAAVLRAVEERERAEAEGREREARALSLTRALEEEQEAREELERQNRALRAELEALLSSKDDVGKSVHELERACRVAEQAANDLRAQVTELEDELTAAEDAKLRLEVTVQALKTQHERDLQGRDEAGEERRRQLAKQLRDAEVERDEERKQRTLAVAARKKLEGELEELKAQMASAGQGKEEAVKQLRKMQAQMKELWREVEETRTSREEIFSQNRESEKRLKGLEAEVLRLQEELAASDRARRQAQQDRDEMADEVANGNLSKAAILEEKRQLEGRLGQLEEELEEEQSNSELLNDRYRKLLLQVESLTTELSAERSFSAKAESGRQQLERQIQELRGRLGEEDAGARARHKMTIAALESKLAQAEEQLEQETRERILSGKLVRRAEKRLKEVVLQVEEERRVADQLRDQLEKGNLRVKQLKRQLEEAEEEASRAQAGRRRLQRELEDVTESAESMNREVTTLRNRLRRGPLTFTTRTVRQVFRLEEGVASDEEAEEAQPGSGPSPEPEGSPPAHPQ

O=C1c2ccsc2N=C2N(c3ccc(N4CCOCC4)cc3)CCC12O (centres unmarked) [Compound 188, 9-Hydroxy-12-[4-(morpholin-4-yl)phenyl]-4-thia-2,12-diazatricyclo[7.3.0.0^3,7]dodeca-1,3(7),5-trien-8-one]
Maximum change in isometric force at rear leg (%) (M. quadriceps femoris; 1 mg i.p.): 23% | Maximum change in isometric force at rear leg (%) (M. quadriceps femoris; 3 mg i.p.): 26% | Maximum change in isometric force at rear leg (%) (M. quadriceps femoris; 6 mg i.p.): 28% | IC50 ([1]; concentration required for semi-maximal inhibition of ATPase): 4 µM | Inhibition (%) NM2C ([1]; maximum inhibition, compounds in IC50 range 1-5 μM): 15% | % inhibition. complete NM2C ([1]; maximum value of inhibition of ATPase activity): 15% | inhibition at 5 µM ([1]; read-out: % inhibition at 5 μM (or 10 μM if racemate) NM2C, 5 μM (10 μM if racemate), ATPase activity): 8% | inhibition at 50 µM ([1]; read-out: % inhibition at 50 μM (or 100 μM if racemate) NM2C, 50 μM (100 μM if racemate), ATPase activity): 14%

Reference: US12421243B2, “Pharmaceutically effective compounds inhibiting selectively the myosin 2 isoforms” (PRINTNET KERESKEDELMI ÉS SZOLGÁLTATÓ KFT., priority 2018, dated 2025)
